According to EP2954896A1, “Small molecule inhibitors of the E3 Ligase Skp2 in depression and other diseases” (Max-Planck-Gesellschaft zur Förderung der Wissenschaften …, priority 2014, dated 2015):

Columns and labels:
[1] = Forced swim test after acute antidepressant injection in Fkbp51+/+ and Fkbp51-/- mice; assay type: in vivo; settings: acute injection 10 mgkg-1
Description: The Fkbp51^-/- mouse line was previously generated (Touma C et al. (2011) Biol. Psychiatry 70: 928-936) and fully backcrossed to C57/BI6. […] Hippocampus and prefrontal cortex were extracted. […] Male mice (age 10-16 weeks) were injected intraperitoneally with a single dose of either AMI (10 mg kg^-1) or saline vehicle. […] Another subgroup (WT n=5, KO n=5) was sacrificed, and brain tissue and blood was sampled for analysis of drug concentrations. […] The inventors performed an additional forced swim test administering the antidepressant amitriptyline in FKBP51 WT and FKBP51 KO mice (Fig. 1 B).

[2] = test system: autophagy markers; test: Autophagy markers in protein extracts of hippocampus and prefrontal cortex after acute antidepressant injection; assay type: in vivo, mice; settings: 10 mgkg-1
Description: Western blot analysis was performed on eluates from ColPs or with protein extracts from cells or tissue. Protein extracts were obtained by lysing cells or tissue (prelysed as described in the paragraph before) in 62.5 mM Tris, 2% SDS and 10% sucrose, supplemented with protease (Sigma, P2714) and phosphatase (Roche, 04906837001) inhibitor cocktail. Samples were sonicated and heated at 95 °C for 5 min. Proteins were separated by SDS-PAGE and electro-transferred onto nitrocellulose membranes. Blots were placed in Tris-buffered saline, supplemented with 0.05% Tween (Sigma, P2287) and 5% non-fat milk for 1 h at room temperature and then incubated with primary antibody (diluted in TBS/0.05% Tween) overnight at 4 °C. The following primary antibodies were used: Beclin1 (1:1000, Cell Signaling, #3495), Atg12 (1:1000, Cell Signaling #2010), LC3B-I/II (1:1000, Cell Signaling, #2775), FLAG (1:7000, Rockland, 600-401-383), FKBP51 (1:1000, Bethyl, A301-430A), Akt (1:1000, Cell Signaling, #4691), pAkt (1:1000, Ser473, T308, 1:1000, Cell Signaling, #4058, #9275), Actin (1:5000, Santa Cruz Biotechnologies, sc-1616), Skp2, myc (Addgene, 19947), GFP (santa cruz biotechnologies, sc-8334), p27 (cell signaling technologies, 3686), pULK,(S757, cell signaling technologies, 6888) APP-CTF (sigma-aldrich, A8717), DNMT1 (1:1000, Imgenex, IMG-261A), phospho-DNMT1 (S154), (1:1000, Abnova, PAB4924), ptau (S622; Santa Cruz Biotechnologies, #sc-16938).
Subsequently, blots were washed and probed with the respective horseradish peroxidase- or fluorophore-conjugated secondary antibody for 1 h at room temperature. The immuno-reactive bands were visualized either using ECL detection reagent (Millipore, Billerica, MA, USA, WBKL0500) or directly by excitation of the respective fluorophore. Determination of the band intensities were performed with BioRad, ChemiDoc MP, or X-ray-films.
The Fkbp51^-/- mouse line was previously generated (Touma C et al. (2011) Biol. Psychiatry 70: 928-936) and fully backcrossed to C57/BI6. […] Hippocampus and prefrontal cortex were extracted.

[3] = test system: autophagy pathway markers; test: Chronic PAR treatment after chronic social defeat stress: autophagy pathway marker protein levels; assay type: in vivo, mice; settings: effect of deletion of FKBP51
Description: Western blot analysis was performed on eluates from ColPs or with protein extracts from cells or tissue. Protein extracts were obtained by lysing cells or tissue (prelysed as described in the paragraph before) in 62.5 mM Tris, 2% SDS and 10% sucrose, supplemented with protease (Sigma, P2714) and phosphatase (Roche, 04906837001) inhibitor cocktail. Samples were sonicated and heated at 95 °C for 5 min. Proteins were separated by SDS-PAGE and electro-transferred onto nitrocellulose membranes. Blots were placed in Tris-buffered saline, supplemented with 0.05% Tween (Sigma, P2287) and 5% non-fat milk for 1 h at room temperature and then incubated with primary antibody (diluted in TBS/0.05% Tween) overnight at 4 °C. […]

[4] = Fkbp51+/+ mice, hippocampus and prefrontal cortex

## Fc1ccc([C@@H]2CCNC[C@H]2COc2ccc3c(c2)OCO3)cc1 [PAR, paroxetine]
[1]; Fkbp51+/+ mice
  time spent struggling, forced swim test: increase in the time spent struggling
[1]; Fkbp51+/+ mice, versus vehicle
  time floating (immobility), forced swim test: less time floating
[1]; Fkbp51-/- mice
  effect on time floating (immobility), forced swim test: significantly less pronounced
  effect on time spent struggling, forced swim test: significantly attenuated
[2]; [4]
  level of Atg12: increased
  level of Beclin1: increased
  level of Vps34: increased
  phosphorylation of the kinase Akt (pAktS473): evoked dephosphorylation
[2]; Fkbp51-/- mice, either brain region
  protein levels of autophagy markers and pAktS473: no alterations
[3]
  effects on autophagy pathway markers Beclin1, Atg12, pAktS473/Akt and LC3BII/I: abolished
